{
  "source": "patent US12440441B2",
  "about": "(LIQMEDS WORLDWIDE LIMITED, priority 2021, dated 2025)",
  "origin": "cited, not measured here",
  "key": {"[1]": {"test_system": "calcium channel", "conditions": "Stopher"}},
  "data": [
    {"compound": "CCOC(=O)C1=C(COCCN)NC(C)=C(C(=O)OC)C1c1ccccc1Cl", "note": "(stereo not drawn) [Amlodipine besylate, amlodipine besylate]", "values": [
      {"measurement": "solubility in ethanol", "setting": "ethanol", "value": "sparingly soluble"},
      {"measurement": "solubility in water", "setting": "water", "value": "slightly soluble"}
    ]},
    {"compound": "CCOC(=O)c1c(COCCN)nc(C)c(C(=O)OC)c1-c1ccccc1Cl", "note": "[Impurity A, Amlodipine Related Substance A]", "values": [
      {"measurement": "calcium antagonist activity relative to amlodipine", "setting": "[1]", "value": "does not show any significant calcium antagonist activity"}
    ]}
  ]
}
